Measured values from patent US5488134A, “Preparation of compounds of lignan series” (Shionogi & Co., Ltd., priority 1993, dated 1996).
pIC50: −log10 of the molar value.

What was measured:
LDL = test: Inhibitory Action against Oxidative Modification of LDL (Cu2+-induced, TBA reactive substances); format: biochemical, New Zealand White rabbits; conditions: rabbit LDL 0.2 mg protein/ml, cupric sulfate 0.5 μM Cu2+, 37° C., 24 hours, read-out: LDL-Oxidation Inhibiting IC50
Protocol: Inhibitory Action against Oxidative Modification of LDL
Experiments were conducted as follows according to the method of Kita, et al. described in proceedings of the National Academy of Sciences, USA, volume 84, pages 5928 (1987).
First, LDL was separated from the blood of New Zealand White rabbits fed with a feed containing 0.5% of cholesterol for three weeks and dissolved in phosphate-buffered physiological saline (final LDL concentration: 0.2 mg protein/ml). To this was added an ethanolic solution of each test compound, then cupric sulfate was added thereto (final Cu^2+ concentration: 0.5 μM) and the mixture was incubated at 37° C. for 24 hours.
The amount of lipid peroxides in each of the incubated solutions was measured as thiobarbituric acid reacting substances (TBA reactive substances) and, from the regression line of the inhibitory rate for oxidative modification of LDL and the concentration of the compound, the 50% inhibiting concentration (IC50) was calculated. Quantitative determination of the TBA reactive substances was conducted by measuring the TBA reactive substances in the supernatant (prepared by removing protein from the incubated solution) by means of TBA method.

[1] = Cholesterol-lowering Action in cholesterol-fed mice; format: in vivo; conditions: male ICR mice, feed with 1% cholesterol and 0.5% sodium cholate, 0.12% test compound in feed, seven days; for (VLDL + LDL) Cholesterol Lowering Rate: total minus HDL cholesterol; for Total Cholesterol Lowering Rate: serum
Protocol: Cholesterol-lowering Action
Male ICR mice (body weight: 30-40 grams) were freely fed for seven days with a feed containing 1% of cholesterol and 0.5% of sodium cholate to which 0.12% of the test compound was added (no such a compound was added for the control group), then blood was collected from the mice and the total cholesterol in serum was measured by the method of Allain described in Clinical Chemistry, volume 20, page 470 (1974).
Total amount of VLDL cholesterol and LDL cholesterol was calculated by subtracting the amount of HDL cholesterol from the amount of total cholesterol. The amount of the HDL cholesterol was measured by the method of Ash and Hentschel described in Clinical Chemistry, volume 24, page 2180 (1978).
Cholesterol lowering action of the test compound was evaluated from the cholesterol lowering rate calculated from the following expressions. [formula]

| pIC50 (LDL) | SMILES | (VLDL + LDL) Cholesterol Lowering Rate [1] [%] | Total Cholesterol Lowering Rate [1] [%] |
| --- | --- | --- | --- |
| 5.82 | COC(=O)c1c(C(=O)c2ccc(C(F)(F)F)cc2)c(O)c2cc(OC)c(OC)c(OC)c2c1-c1ccc(OC)c(OC)c1 [Example 1, 1-(3,4-Dimethoxyphenyl)-4-hydroxy-2-(methoxycarbonyl)-3-[4-(trifluoromethyl)benzoyl]-6,7,8-trimethoxynaphthalene] | 61 | 22 |
| 5.85 | COC(=O)c1c(C(=O)c2ccc(Cl)cc2)c(O)c2cc(OC)c(OC)c(OC)c2c1-c1ccc(OC)c(OC)c1 [Example 2, 3-(4-Chlorobenzoyl)-1-(3,4-dimethoxyphenyl)-4-hydroxy-2-(methoxycarbonyl)-6,7,8-trimethoxynaphthalene] | 74 | 28 |
